# Source: patent US7476670B2, “Purine derivatives, method for preparing, pharmaceutical compositions and novel use” (Aventis Pharma S.A., priority 2003, dated 2009)
# pIC50: −log10 of the molar value. Counter-ions that a name gives are not always drawn. Like-named read-outs stand apart in the source and are kept apart here.
# Assays:
# CaCiv1 = CaCiv1 (Candida albicans, UniProt A0A1D8PH53); assay: Assay for inhibition of CIV-CDK (CIV1) activity; format: biochemical
# Text: 1) Assay for Inhibition of CIV-CDK (CIV1) Activity
# a) Preparation of the Reagents
# SRC kinase = biological target: T1, SRC kinase (Homo sapiens, UniProt P12931); assay: Assay for inhibition of SRC kinase activity; format: biochemical; conditions: fluorescence polarization, read-out: percentage inhibition at 20 μM
# T1 construct: purchased Upstate Biotechnology 14-117
# T1 sequence (P12931 whole entry): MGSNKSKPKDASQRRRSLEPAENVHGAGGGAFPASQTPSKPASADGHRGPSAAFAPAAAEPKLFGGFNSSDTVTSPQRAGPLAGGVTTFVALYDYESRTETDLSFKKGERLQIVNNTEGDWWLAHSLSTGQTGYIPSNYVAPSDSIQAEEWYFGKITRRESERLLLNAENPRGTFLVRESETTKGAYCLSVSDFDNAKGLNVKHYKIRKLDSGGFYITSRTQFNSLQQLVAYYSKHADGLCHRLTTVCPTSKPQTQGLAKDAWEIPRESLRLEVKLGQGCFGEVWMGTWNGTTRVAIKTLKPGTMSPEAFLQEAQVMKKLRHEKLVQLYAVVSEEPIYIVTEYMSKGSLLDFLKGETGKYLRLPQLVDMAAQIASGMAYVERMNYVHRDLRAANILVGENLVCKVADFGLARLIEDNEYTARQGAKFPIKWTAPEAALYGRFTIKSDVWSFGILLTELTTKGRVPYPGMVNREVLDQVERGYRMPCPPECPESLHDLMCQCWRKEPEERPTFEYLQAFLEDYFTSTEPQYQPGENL
# Description: 2) Assay for Inhibition of SRC Kinase Activity
# The inhibition is determined by fluorescence polarization, the […] kinase phosphorylates a peptide detected by adding an anti-phosphopeptide antibody coupled to a fluorescent label.
# The assay is carried out in a final volume of 50 μl; all the reagents are prepared in a buffer: • 25 mM HEPES/NaOH pH 7.6 • 5 mM MgCl2 • 2 mM MnCl2 • 50 μM Na2VO4 5 μl of the 10-times concentrated inhibitor are added to 25 μl of enzyme (12 U/ml final concentration), (Upstate Biotechnology ref 14-117). After incubation for 5 minutes at ambient temperature, 10 μl of PolyGluTyr 4/1 (150 ng/ml final concentration) and 10 μl of ATP (5 μM final concentration) are added. The detection is carried out after incubation for 20 minutes at ambient temperature. • Results obtained expressed as percentage inhibition at 20 μM • Example 8 98% • Example 15 99% • Example 20 99% • Example 24 99% • Example 27 95% • Example 30 99% • Example 32 100% • Example 38 95% 3) Assay for Inhibition of CDK2 Activity
# JNK3 kinase = JNK3 kinase (Homo sapiens, UniProt P53779); assay: Assay for inhibition of JNK3 activity; format: biochemical; conditions: fluorescence polarization, ATP 6 μM; read-out: IC50s expressed as micromolar
# Sequence of JNK3 kinase (P53779 whole entry): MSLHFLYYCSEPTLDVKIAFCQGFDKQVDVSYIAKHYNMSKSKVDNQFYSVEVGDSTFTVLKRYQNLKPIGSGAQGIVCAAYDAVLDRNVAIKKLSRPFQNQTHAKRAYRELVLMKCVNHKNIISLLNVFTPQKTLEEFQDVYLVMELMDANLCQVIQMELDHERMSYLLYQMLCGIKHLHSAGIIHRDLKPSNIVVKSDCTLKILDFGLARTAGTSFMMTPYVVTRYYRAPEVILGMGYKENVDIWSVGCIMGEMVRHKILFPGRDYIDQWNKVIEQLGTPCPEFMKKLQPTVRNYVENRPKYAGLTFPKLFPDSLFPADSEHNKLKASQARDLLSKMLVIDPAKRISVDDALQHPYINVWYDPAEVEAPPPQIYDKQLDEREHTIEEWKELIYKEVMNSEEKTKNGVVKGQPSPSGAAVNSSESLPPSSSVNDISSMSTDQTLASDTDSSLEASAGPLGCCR
# Description: The inhibition of the kinase activity is determined by fluorescence polarization, the JNK3 kinase phosphorylates a peptide detected by adding an anti-phosphopeptide antibody coupled to a fluorescent label.
# The assay is carried out in a final volume of 30 μl; all the reagents are prepared in a buffer: • 50 mM HEPES pH 7.5 • 0.03% triton X100 • 10 mM MgCl2 • 5% Glycerol • 1 mM DTT 10 μl of the 10-times concentrated inhibitor are added to 5 μl of enzyme (40 ng final concentration), and 5 μl of incubation buffer containing 100 ng of substrate and 10 μl of ATP (6 μM final concentration) are added.
# [1] = biological target: Cyclin Dependent kinase 2 (CDK2) (Homo sapiens, UniProt P24941); assay: Assay for inhibition of CDK2 activity; format: biochemical; conditions: [33P]ATP, read-out: percentage inhibition at 20 μM
# Description: The inhibition of the kinase activity of Cyclin Dependent kinase 2 (CDK2) is determined by measuring the phosphorylation of its substrate peptide.
# The assay is carried out in a final volume of 50 μl.
# The incubation buffer as follows:
# • 50 mM Hepes/NaOH pH 7.5 • 10 mM MgCl2 • 1 mM DTT 5 μl of the 10-times concentrated inhibitor are added to 25 μl of incubation buffer containing 0.8 U/μL final concentration of the enzyme; 10 μL of incubation buffer containing 0.0025 mg/ml of peptide substrate are then added and, finally, 10 μL of incubation buffer containing 2 mM ATP and radiolabeled ATP, [^33P]ATP (0.25 μCi), are added. The reaction is stopped after incubation for 10 minutes at 37° C. • Results obtained expressed as percentage inhibition at 20 μM • Example 2 97% • Example 27 97% • Example 30 99% 4) Assay for Inhibition of CDK1 Activity
# Abl kinase = assay: Assay for inhibition of Abl activity; format: biochemical; conditions: fluorescence polarization
# Description: The inhibition of the kinase activity is determined by fluorescence polarization, the Abl kinase phosphorylates a peptide detected by adding an anti-phosphopeptide antibody coupled to a fluorescent label.
# The assay is carried out in a final volume of 50 μl; all the reagents are prepared in a buffer: • 20 mM Hepes/NaOH pH 7.5 • 5 mM MgCl2 • 100 μM Na2VO4 • 1 mM DTT • 100 μM EDTA/NaOH • 0.01% Brij35 5 μl of the 10-times concentrated inhibitor are added to 25 μl of enzyme (1000 U/ml final concentration), (Calbiochem ref 102555). After incubation for 5 minutes at ambient temperature, 10 μL of PolyGT (400 ng/ml final concentration) and 10 μL of ATP (5 μM final concentration) are added. The detection is carried out after incubation for 15 minutes at 30° C. • Results obtained expressed as percentage inhibition at 20 μM • Example 24 100% • Example 2 100% • Example 32 100% 6) Assay for Inhibition of ZAP Kinase Activity
# Candida glabrata = assay: Minimum inhibitory concentration in liquid medium, micro method (NCCLS M27-A); format: cell-based; conditions: Nakaseomyces glabratus; at least 80% inhibition of growth, read after 24-48 h at 37° C., RPMI 1640; read-out: MIC Candida glabrata
# Description: (§1) The assay is carried out in a final volume of 40 μl; all the reagents are prepared in a buffer: • 50 mM HEPES pH 7.5 • 0.03% triton X100 • 10 mM MgCl2 • 5% Glycerol • 1 mM DTT 10 μl of the 10-times concentrated inhibitor are added to 5 μl of enzyme (75 ng final concentration), and 5 μl of peptide (1 μM final concentration), then 2.5 μl of incubation buffer containing 40 μM ATP and 2.5 μl of radiolabeled ATP, [^33P]ATP (500 nCi), are added. After incubation for 15 minutes at ambient temperature, 10 μl of incubation buffer containing 192 nM of substrate. […] Reference method for broth dilution antifungal susceptibility testing of yeasts. Approved Standard M27-A. NCCLS, Villanova, Pa.); the minimum concentration with which a visible decrease is observed in the cloudiness of the cell growth (at least 80% compared to a control without product) is the Minimum Inhibitory Concentration (MIC) of the antifungal agent with respect to the strain tested.
# (§2) RPMI 1640 medium (liquid) without L-glutamine is supplemented with L-glutamine (0.3 g/l or 10.5 ml of a solution at 200 mM) and buffered with 34.54 g/l (0.165 M) of morpholinepropanesulfonic acid (MOPS). The medium is sterilized by filtration. 100 μl of RPMI medium are distributed into each well of a 96-well plate. The appropriate volume. of the antifungal solution is distributed in the first column of the microplate and supplemented with 200 μl of medium. Doubling dilutions are made so as to establish a range of 11 concentrations in each line of the microplate. The 12th well of each row will serve as a growth control. The cell suspension is prepared from a culture (liquid or agar) or from a frozen vial, and is diluted in RPMI medium so as to obtain a cell suspension at 5×10^3−2×10^4 cells/ml. 100 μl of the cell suspension are distributed in the microplate. For all species of Candida, the MIC is read after 24-48 h, and for Cryptococcus and Aspergillus after 48-72 h, of incubation at 37° C. in a normal atmosphere. The MIC is read by visual reading, determining the well which contains the lowest dose of antifungal agent which causes at least 80% inhibition of the growth of the fungus.
# Candida albicans = assay: as above; format: cell-based; conditions: at least 80% inhibition of growth, read after 24-48 h at 37° C., RPMI 1640, read-out: MIC Candida albicans
# Description: as §1, §2
# [2] = CaCiv1 with Cdk2 substrate, [33P]ATP, 30 min ambient temperature, read-out: IC50 as micromolar
# Sequence of CaCiv1 (A0A1D8PH53 entry or part of it): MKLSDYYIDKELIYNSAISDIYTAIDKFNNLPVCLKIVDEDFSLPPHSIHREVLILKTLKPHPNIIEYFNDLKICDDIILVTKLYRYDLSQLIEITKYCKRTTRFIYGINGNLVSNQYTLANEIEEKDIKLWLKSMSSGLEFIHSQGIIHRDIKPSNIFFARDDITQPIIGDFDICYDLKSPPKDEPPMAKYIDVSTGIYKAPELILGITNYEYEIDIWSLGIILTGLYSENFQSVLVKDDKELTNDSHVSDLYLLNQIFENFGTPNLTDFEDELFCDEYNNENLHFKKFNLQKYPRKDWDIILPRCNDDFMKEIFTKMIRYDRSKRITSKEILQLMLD
compound,measurement,setting,value
"N[C@H]1CC[C@H](Nc2nc(N3CCc4ccc([N+](=O)[O-])cc43)c3nc[nH]c3n2)CC1 [Example 44, Trans-N-[6-(6-nitro-2,3-dihydro-1H-indol-1-yl)-9H-purin-2-yl]-1,4-cyclohexanediamine]",pIC50,CaCiv1; [2],7.70
"N[C@H]1CC[C@H](Nc2nc(N3CCc4cc(NC(=O)Nc5ccc(Cl)c(Cl)c5)ccc43)c3nc[nH]c3n2)CC1 [Example 43, Trans-N-[1-[2-[(4-aminocyclohexyl)amino]-9H-purin-6-yl]-2,3-dihydro-1H-indol-5-yl]-N′-(3,4-dichlorophenyl)urea]",pIC50,CaCiv1; [2],5.36
"N[C@H]1CC[C@H](Nc2nc(N3CCc4ccc(C(F)(F)F)cc43)c3nc[nH]c3n2)CC1 [Example 40, Trans-N-[6-[2,3-dihydro-6-(trifluoro-methyl)-1H-indol-1-yl)-9H-purin-2-yl]-1,4-cyclohexanediamine]",pIC50,CaCiv1; [2],6.70
"COc1ccc2c(c1)ncn2-c1nc(N[C@H]2CC[C@H](N)CC2)nc2[nH]cnc12 [Example 15, Trans-N-[6-(5-methoxy-1H-benzimidazol-1-yl)-9H-purin-2-yl]-1,4-cyclohexanediamine dihydrochloride]",pIC50,CaCiv1,6.52
same,inhibition at 20 µM,SRC kinase,99%
same,pIC50,JNK3 kinase,6.30
"CC(=O)c1ccc2c(c1)CCN2c1nc(N[C@H]2CC[C@H](N)CC2)nc2[nH]cnc12 [Example 39, Trans-1-[1-[2-[(4-aminocyclohexyl)amino]-9H-purin-6-yl]-2,3-dihydro-1H-indol-5-yl]ethanone]",pIC50,CaCiv1; [2],5.44
"N[C@H]1CC[C@H](Nc2nc(N3CCc4cc(F)ccc43)c3nc[nH]c3n2)CC1 [Example 38, Trans-N-[6-(5-fluoro-2,3-dihydro-1H-indol-1-yl)-9H-purin-2-yl]-1,4-cyclohexanediamine dihydrochloride]",inhibition at 20 µM,SRC kinase,95%
same,pIC50,JNK3 kinase,6.38
"N[C@H]1CC[C@H](Nc2nc(N3CCc4cc(Cl)ccc43)c3nc[nH]c3n2)CC1 [Example 7, Trans-N-[6-(5-chloro-2,3-dihydro-1H-indol-1-yl)-9H-purin-2-yl]-1,4-cyclohexanediamine]",pIC50,CaCiv1; [2],5.44
"N[C@H]1CC[C@H](Nc2nc(-n3ccc4ccccc43)c3nc[nH]c3n2)CC1 [Example 16, Trans-N-[6-(1H-indol-1-yl)-9H-purin-2-yl]-1,4-cyclohexanediamine dihydrochloride]",pIC50,CaCiv1,6.51
"CC[C@@H](CO)Nc1nc(-n2cnc3ccccc32)c2nc[nH]c2n1 [Example 27, (2S)-2-[[6-(1H-benzimidazol-1-yl)-9H-purin-2-yl]amino]-1-butanol]",pIC50,CaCiv1; [2],5.37
same,inhibition at 20 µM,SRC kinase,95%
same,inhibition at 20 µM,[1],97%
same,pIC50,JNK3 kinase,6.54
"N[C@H]1CC[C@H](Nc2nc(N3CCc4cc(NC(=O)Cc5cccs5)ccc43)c3nc[nH]c3n2)CC1 [Example 41, Trans-N-[1-[2-[(4-aminocyclohexyl)amino]-9H-purin-6-yl]-2,3-dihydro-1H-indol-5-yl]-2-thiopheneacetamide]",pIC50,CaCiv1; [2],6.02
"N[C@H]1CC[C@H](Nc2nc(N3CCc4cc(Br)ccc43)c3nc[nH]c3n2)CC1 [Example 32, Trans-N-[6-(5-bromo-2,3-dihydro-1H-indol-1-yl)-9H-purin-2-yl]-1,4-cyclohexanediamine]",percentage inhibition at 20 μM,Abl kinase,100%
same,MIC,Candida glabrata,64 µg/mL
same,MIC,Candida albicans,64 µg/mL
same,inhibition at 20 µM,SRC kinase,100%
"Cc1cc2ncn(-c3nc(N[C@H]4CC[C@H](N)CC4)nc4[nH]cnc34)c2cc1C [Example 5, Trans-N-[6-(5,6-dimethyl-1H-benzimidazol-1-yl)-9H-purin-2-yl]-1,4-cyclohexanediamine]",pIC50,CaCiv1; [2],5.96
same,MIC,Candida glabrata,64 µg/mL
same,MIC,Candida albicans,64 µg/mL
"CN(C)c1ccc(NC(=O)Nc2ccc3c(c2)CCN3c2nc(N[C@H]3CC[C@H](N)CC3)nc3[nH]cnc23)cc1 [Example 45, Trans-N-[1-[2-[(4-aminocyclohexyl)amino]-9H-purin-6-yl]-2,3-dihydro-1H-indol-5-yl]-N′-[4-(dimethylamino)phenyl]urea]",pIC50,CaCiv1; [2],5.89
"N[C@H]1CC[C@H](Nc2nc(N3CCc4cc(NC(=O)CCc5ccccc5)ccc43)c3nc[nH]c3n2)CC1 [Example 42, Trans-N-[1-[2-[(4-aminocyclohexyl)amino]-9H-purin-6-yl]-2,3-dihydro-1H-indol-5-yl]benzenepropanamide]",pIC50,CaCiv1; [2],5.48
"Nc1ccc2c(c1)CCN2c1nc(N[C@H]2CC[C@H](N)CC2)nc2[nH]cnc12 [Example 46, Trans-N-[6-(5-amino-2,3-dihydro-1H-indol-1-yl)-9H-purin-2-yl]-1,4-cyclohexanediamine]",pIC50,CaCiv1; [2],5.70
